Measured values from patent publication US8637499B2, “Benzoxazepines as inhibitors of PI3K/mTOR and methods of their use and manufacture” (Exelixis, Inc., priority 2009, dated 2014).
Several values for one entry are separate records, joined by “and”; a condition that tells them apart may be missing. Identical values can stand only once.

Biological target: PI3Kα (Homo sapiens, UniProt P42336)
Assay: PI3K Biochemical Assays (ATP consumption, luciferase-luciferin chemiluminescence)
Settings: PI3Kα 1.5 nM, ATP 1 μM, PIP2 10 μM; percent of ATP consumed
Method: PI3Kα activity is measured as the percent of ATP consumed following the kinase reaction using luciferase-luciferin-coupled chemiluminescence. Reactions were conducted in 384-well white, medium binding microtiter plates (Greiner). Kinase reactions were initiated by combining test compounds, ATP, substrate (PIP2), and kinase in a 20 μL volume in a buffer solution. The standard PI3Kalpha assay buffer is composed 50 mM Tris, pH 7.5, 1 mM EGTA, 10 mM MgCl2, 1 mM DTT and 0.03% CHAPS. The standard assay concentrations for enzyme, ATP, and substrate are 1.5 nM, 1 μM, and 10 μM, respectively. The reaction mixture was incubated at ambient temperature for approximately 2 h. Following the kinase reaction, a 10 μL aliquot of luciferase-luciferin mix (Promega Kinase-Glo) was added and the chemiluminescence signal measured using a Victor2 plate reader (Perkin Elmer). Total ATP consumption was limited to 40-60% and IC50 values of control compounds correlate well with literature references. Substituting PI3Kα with PI3KIβ, […], or […], the inhibitory activity of the compounds for the other isoforms of I3K were measured.

PI3Kα, sequence (P42336 whole entry): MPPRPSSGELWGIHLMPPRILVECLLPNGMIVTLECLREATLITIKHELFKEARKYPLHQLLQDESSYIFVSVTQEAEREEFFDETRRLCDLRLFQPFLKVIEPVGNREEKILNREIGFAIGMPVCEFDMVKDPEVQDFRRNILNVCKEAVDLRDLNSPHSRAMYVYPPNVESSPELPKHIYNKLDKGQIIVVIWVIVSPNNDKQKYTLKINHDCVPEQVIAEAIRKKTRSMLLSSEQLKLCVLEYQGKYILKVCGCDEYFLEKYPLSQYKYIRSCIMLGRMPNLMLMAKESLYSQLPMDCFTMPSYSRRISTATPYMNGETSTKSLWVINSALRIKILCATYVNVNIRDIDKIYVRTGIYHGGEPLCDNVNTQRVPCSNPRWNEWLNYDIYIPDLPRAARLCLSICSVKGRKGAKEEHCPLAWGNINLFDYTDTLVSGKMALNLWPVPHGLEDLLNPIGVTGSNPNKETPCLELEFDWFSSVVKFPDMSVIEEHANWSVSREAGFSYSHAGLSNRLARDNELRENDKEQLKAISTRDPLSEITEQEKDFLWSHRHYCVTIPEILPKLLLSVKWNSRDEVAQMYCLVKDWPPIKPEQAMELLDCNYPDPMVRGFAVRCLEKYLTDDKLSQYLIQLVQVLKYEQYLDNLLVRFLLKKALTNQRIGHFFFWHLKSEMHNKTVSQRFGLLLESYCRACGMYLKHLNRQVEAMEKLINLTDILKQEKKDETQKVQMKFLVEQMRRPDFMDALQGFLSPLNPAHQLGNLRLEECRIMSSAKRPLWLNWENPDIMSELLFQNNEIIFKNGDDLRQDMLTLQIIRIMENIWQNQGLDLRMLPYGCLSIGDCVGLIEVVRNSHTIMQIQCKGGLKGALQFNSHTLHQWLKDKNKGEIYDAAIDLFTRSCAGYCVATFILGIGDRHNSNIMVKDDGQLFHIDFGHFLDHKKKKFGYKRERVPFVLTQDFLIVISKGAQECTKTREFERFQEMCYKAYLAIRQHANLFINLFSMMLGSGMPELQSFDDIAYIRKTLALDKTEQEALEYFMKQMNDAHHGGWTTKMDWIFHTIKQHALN
PI3Kα, sequence (P27986 whole entry partner): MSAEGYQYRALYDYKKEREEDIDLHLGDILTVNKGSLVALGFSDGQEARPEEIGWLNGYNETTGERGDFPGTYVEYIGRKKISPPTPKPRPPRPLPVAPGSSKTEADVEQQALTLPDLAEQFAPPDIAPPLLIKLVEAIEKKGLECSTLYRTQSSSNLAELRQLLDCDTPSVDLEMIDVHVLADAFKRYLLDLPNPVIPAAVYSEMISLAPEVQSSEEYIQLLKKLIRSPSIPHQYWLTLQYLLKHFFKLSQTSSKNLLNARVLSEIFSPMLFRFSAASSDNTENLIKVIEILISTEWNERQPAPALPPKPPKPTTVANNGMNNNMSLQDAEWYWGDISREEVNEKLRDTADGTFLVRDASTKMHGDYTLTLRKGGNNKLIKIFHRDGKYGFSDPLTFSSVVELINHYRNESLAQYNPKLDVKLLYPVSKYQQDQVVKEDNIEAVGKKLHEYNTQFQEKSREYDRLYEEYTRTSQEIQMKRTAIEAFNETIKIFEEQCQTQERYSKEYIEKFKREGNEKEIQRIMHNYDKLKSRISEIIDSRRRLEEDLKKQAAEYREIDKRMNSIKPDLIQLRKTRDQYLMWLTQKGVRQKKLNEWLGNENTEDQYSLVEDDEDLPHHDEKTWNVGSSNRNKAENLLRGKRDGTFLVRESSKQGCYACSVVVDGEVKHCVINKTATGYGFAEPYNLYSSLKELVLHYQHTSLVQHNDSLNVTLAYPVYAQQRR

SMILES | IC50
CC1CCN(C(=O)N2CCOc3ccc(-c4cc(NCc5ccccc5)[nH]n4)cc3C2)CC1 [Compound 9, 3-{4-[(4-methylpiperidin-1-yl)carbonyl]-2,3,4,5-tetrahydro-1,4-benzoxazepin-7-yl}-N-(phenylmethyl)-1H-pyrazol-5-amine] | 1 to 3 µM
Cc1nc2ccc(-c3ccc4c(c3)CN(C(=O)N3CCC(C5CCNCC5)CC3)CCO4)cc2[nH]1 [Compound 71, 1-{[7-(2-methyl-1H-benzimidazol-6-yl)-2,3-dihydro-1,4-benzoxazepin-4(5H)-yl]carbonyl}-4,4-bipiperidine] | 0.2 to 0.5 µM and 0.5 to 1 µM
Cc1nc2ccc(-c3ccc4c(c3)CN(C(=O)N3CC[C@@H](O)C3)CCO4)cc2[nH]1 [Compound 78, (3R)-1-{[7-(2-methyl-1H-benzimidazol-6-yl)-2,3-dihydro-1,4-benzoxazepin-4(5H)-yl]carbonyl}pyrrolidin-3-ol] | 0.5 to 1 µM
Cc1nc2ccc(-c3ccc4c(c3)CN(C(=O)N3CC[C@H](O)C3)CCO4)cc2[nH]1 [Compound 82, (3S)-1-{[7-(2-methyl-1H-benzimidazol-6-yl)-2,3-dihydro-1,4-benzoxazepin-4(5H)-yl]carbonyl}pyrrolidin-3-ol] | 1 to 3 µM
Cc1nc2ccc(-c3ccc4c(c3)CN(C(=O)N3CCCC3)CCO4)cc2[nH]1 [Compound 87, 7-(2-methyl-1H-benzimidazol-6-yl)-4-(pyrrolidin-1-ylcarbonyl)-2,3,4,5-tetrahydro-1,4-benzoxazepine] | 0.5 to 1 µM
Cc1nc2ccc(-c3ccc4c(c3)CN(C(=O)N3CC[S+]([O-])CC3)CCO4)cc2[nH]1 [Compound 101, 7-(2-methyl-1H-benzimidazol-6-yl)-4-[(1-oxidothiomorpholin-4-yl)carbonyl]-2,3,4,5-tetrahydro-1,4-benzoxazepine] | 1 to 3 µM

Biological target: mTORC1 (mTOR/GbL/Raptor) (Homo sapiens, UniProt P42345)
Assay: mTOR/GbL/Raptor (mTORC1) ELISA Assay
Assay type: biochemical
Settings: 0.2 nM mTORC1, 10 μM ATP, 50 nM NHis-tagged 4E-BP1; phosphorylation of 4E-BP1; read-out: IC50
Method: mTOR/GbL/Raptor (mTORC1) ELISA Assay
The measurement of mTORC1 enzyme activity was performed in an ELISA assay format following the phosphorylation of 4E-BP1 protein. All experiments were performed in the 384-well format. Generally, 0.5 μL DMSO containing varying concentrations of the test compound was mixed with 15 μL enzyme solution. Kinase reactions were initiated with the addition of 15 μL of substrates-containing solution. The assay conditions were as follows; 0.2 nM mTORC1, 10 μM ATP and 50 nM NHis-tagged 4E-BP1 in 20 mM Hepes, pH 7.2, 1 mM DTT, 50 mM NaCl, 10 mM MnCl2, 0.02 mg/mL BSA, 0.01% CHAPS, 50 mM β-glycerophosphate. Following an incubation of 120 minutes at ambient temperature, 20 μL of the reaction volume was transferred to a Ni-Chelate-coated 384-well plate. The binding step of the 4E-BP1 protein proceeded for 60 minutes, followed by washing 4 times each with 50 μL of Tris-buffered saline solution (TBS). Anti-phospho-4E-BP1 rabbit-IgG (20 μL, 1:5000) in 5% BSA-TBST (0.2% Tween-20 in TBS) was added and further incubated for 60 minutes. Incubation with a secondary HRP-tagged anti-IgG was similarly performed after washing off the primary antibody (4 washes of 50 μL). Following the final wash step with TBST, 20 μL of SuperSignal ELISA Femto (Pierce Biotechnology) was added and the luminescence measured using an EnVision plate reader.

SMILES | IC50
Cc1nc2cc(-c3ccc4c(c3)CN(C(=O)N3CC[C@@](C)(O)C[C@@H]3c3ccccc3)CCO4)ccc2[nH]1 (racemic) [Compound 133, (±)-(2R,4R)-4-methyl-1-{[7-(2-methyl-1H-benzimidazol-5-yl)-2,3-dihydro-1,4-benzoxazepin-4(5H)-yl]carbonyl}-2-phenylpiperidin-4-ol] | 0.7 to 2.6 µM
CC1CCN(C(=O)N2CCOc3ccc(-c4ccc(N)nn4)cc3C2)CC1 [Compound 1, 6-{4-[(4-methylpiperidin-1-yl)carbonyl]-2,3,4,5-tetrahydro-1,4-benzoxazepin-7-yl}pyridazin-3-amine] | 0.7 to 2.6 µM
CC1CCN(C(=O)N2CCOc3ccc(-c4cnc(N)cn4)cc3C2)CC1 [Compound 4, 5-{4-[(4-methylpiperidin-1-yl)carbonyl]-2,3,4,5-tetrahydro-1,4-benzoxazepin-7-yl}pyrazin-2-amine] | 0.7 to 2.6 µM
Nc1cnc(-c2ccc3c(c2)CN(C(=O)N2CCC(C(F)(F)F)CC2)CCO3)cn1 [Compound 6, 5-(4-{[4-(trifluoromethyl)piperidin-1-yl]carbonyl}-2,3,4,5-tetrahydro-1,4-benzoxazepin-7-yl)pyrazin-2-amine] | 0.25 to 0.7 µM
CC1CCN(C(=O)N2CCOc3ccc(-c4cc(N)[nH]n4)cc3C2)CC1 [Compound 10, 3-{4-[(4-methylpiperidin-1-yl)carbonyl]-2,3,4,5-tetrahydro-1,4-benzoxazepin-7-yl}-1H-pyrazol-5-amine] | 0.7 to 2.6 µM
Cc1nc2ccc(-c3ccc4c(c3)CN(C(=O)N3CCCC[C@H]3c3ccccc3)CCO4)cc2[nH]1 [Compound 65, 7-(2-methyl-1H-benzimidazol-6-yl)-4-{[(2S)-2-phenylpiperidin-1-yl]carbonyl}-2,3,4,5-tetrahydro-1,4-benzoxazepine] | ≤ 0.05 µM
Cc1nc2ccc(-c3ccc4c(c3)CN(C(=O)N3[C@@H]5CC[C@H]3C[C@@H](N)C5)CCO4)cc2[nH]1 [Compound 77, 8-{[7-(2-methyl-1H-benzimidazol-6-yl)-2,3-dihydro-1,4-benzoxazepin-4(5H)-yl]carbonyl}-8-azabicyclo[3.2.1]octan-3-(endo)-amine] | 0.7 to 2.6 µM
Cc1nc2ccc(-c3ccc4c(c3)CN(C(=O)N3CCCCC3Cc3ccccc3)CCO4)cc2[nH]1 (centres unmarked) [Compound 104, 7-(2-methyl-1H-benzimidazol-6-yl)-4-{[2-(phenylmethyl)piperidin-1-yl]carbonyl}-2,3,4,5-tetrahydro-1,4-benzoxazepine] | 0.25 to 0.7 µM
Cc1nc2ccc(-c3ccc4c(c3)CN(C(=O)N3CCCCC3c3ccc(F)cc3C)CCO4)cc2[nH]1 (centres unmarked) [Compound 117, 4-{[2-(4-fluoro-2-methylphenyl)piperidin-1-yl]carbonyl}-7-(2-methyl-1H-benzimidazol-6-yl)-2,3,4,5-tetrahydro-1,4-benzoxazepine] | 0.7 to 2.6 µM
Cc1nc2ccc(-c3ccc4c(c3)CN(C(=O)N3CCCCC3c3ccccc3C)CCO4)cc2[nH]1 (centres unmarked) [Compound 126, 7-(2-methyl-1H-benzimidazol-6-yl)-4-{[2-(2-methylphenyl)piperidin-1-yl]carbonyl}-2,3,4,5-tetrahydro-1,4-benzoxazepine] | 0.7 to 2.6 µM
Cc1nc2ccc(-c3ccc4c(c3)CN(C(=O)N3CCC(O)(c5ccc(C(F)(F)F)cc5)CC3)CCO4)cc2[nH]1 [Compound 141, 1-{[7-(2-methyl-1H-benzimidazol-6-yl)-2,3-dihydro-1,4-benzoxazepin-4(5H)-yl]carbonyl}-4-[4-(trifluoromethyl)phenyl]piperidin-4-ol] | 0.25 to 0.7 µM
Cc1nc2ccc(-c3ccc4c(c3)CN(C(=O)N3CCN(C)C(=O)C3)CCO4)cc2[nH]1 [Compound 146, 1-methyl-4-{[7-(2-methyl-1H-benzimidazol-6-yl)-2,3-dihydro-1,4-benzoxazepin-4(5H)-yl]carbonyl}piperazin-2-one] | 0.25 to 0.7 µM
Cc1nc2ccc(-c3ccc4c(c3)CN(C(=O)NC3[C@H]5C[C@@H]6C[C@@H](C[C@H]3C6)C5)CCO4)cc2[nH]1 (stereo partly drawn) [Compound 149, 7-(2-methyl-1H-benzimidazol-6-yl)-N-[(1r,3r,5R,7R)-tricyclo[3.3.1.1~3,7~]dec-2-yl]-2,3-dihydro-1,4-benzoxazepine-4(5H)-carboxamide] | 0.7 to 2.6 µM
Cc1nc2ccc(-c3ccc4c(c3)CN(C(=O)N3CCN(Cc5c(F)cccc5Cl)CC3)CCO4)cc2[nH]1 [Compound 152, 4-({4-[(2-chloro-6-fluorophenyl)methyl]piperazin-1-yl}carbonyl)-7-(2-methyl-1H-benzimidazol-6-yl)-2,3,4,5-tetrahydro-1,4-benzoxazepine] | 0.25 to 0.7 µM
CCC1CC2(CCN(C(=O)N3CCOc4ccc(-c5ccc6nc(C)[nH]c6c5)cc4C3)CC2)CC(=O)N1 (centres unmarked) [Compound 155, 4-ethyl-9-{[7-(2-methyl-1H-benzimidazol-6-yl)-2,3-dihydro-1,4-benzoxazepin-4(5H)-yl]carbonyl}-3,9-diazaspiro[5.5]undecan-2-one] | 0.25 to 0.7 µM
Cc1nc2ccc(-c3ccc4c(c3)CN(C(=O)N3CCN(c5ccccc5Cl)CC3)CCO4)cc2[nH]1 [Compound 159, 4-{[4-(2-chlorophenyl)piperazin-1-yl]carbonyl}-7-(2-methyl-1H-benzimidazol-6-yl)-2,3,4,5-tetrahydro-1,4-benzoxazepine] | 0.7 to 2.6 µM
COc1cccc(N2CCN(C(=O)N3CCOc4ccc(-c5ccc6nc(C)[nH]c6c5)cc4C3)CC2)c1 [Compound 160, 7-(2-methyl-1H-benzimidazol-6-yl)-4-({4-[3-(methyloxy)phenyl]piperazin-1-yl}carbonyl)-2,3,4,5-tetrahydro-1,4-benzoxazepine] | 0.7 to 2.6 µM
Cc1nc2ccc(-c3ccc4c(c3)CN(C(=O)N3CCN(c5ccccc5F)CC3)CCO4)cc2[nH]1 [Compound 165, 4-{[4-(2-fluorophenyl)piperazin-1-yl]carbonyl}-7-(2-methyl-1H-benzimidazol-6-yl)-2,3,4,5-tetrahydro-1,4-benzoxazepine] | 0.7 to 2.6 µM
Cc1nc2ccc(-c3ccc4c(c3)CN(C(=O)N3CCC(Cc5ccccc5)CC3)CCO4)cc2[nH]1 [Compound 171, 7-(2-methyl-1H-benzimidazol-6-yl)-4-{[4-(phenylmethyl)piperidin-1-yl]carbonyl}-2,3,4,5-tetrahydro-1,4-benzoxazepine] | 0.25 to 0.7 µM
CCCCN(Cc1ccccc1)C(=O)N1CCOc2ccc(-c3ccc4nc(C)[nH]c4c3)cc2C1 [Compound 173, N-butyl-7-(2-methyl-1H-benzimidazol-6-yl)-N-(phenylmethyl)-2,3-dihydro-1,4-benzoxazepine-4(5H)-carboxamide] | 0.25 to 0.7 µM
